One block for each compound: values may come before it.
Biological target: human PD-L1 (Homo sapiens (Human), UniProt Q9NZQ7)
Assay: T cell activation luciferase reporter cell culture system (T Cell Activation Assay)
Type: cell-based
Conditions: luciferase reporter assay; PD-L1 aAPC/CHO-K1 cells with PD-1 effector Jurkat T cells

human PD-L1, sequence (Q9NZQ7 19-290): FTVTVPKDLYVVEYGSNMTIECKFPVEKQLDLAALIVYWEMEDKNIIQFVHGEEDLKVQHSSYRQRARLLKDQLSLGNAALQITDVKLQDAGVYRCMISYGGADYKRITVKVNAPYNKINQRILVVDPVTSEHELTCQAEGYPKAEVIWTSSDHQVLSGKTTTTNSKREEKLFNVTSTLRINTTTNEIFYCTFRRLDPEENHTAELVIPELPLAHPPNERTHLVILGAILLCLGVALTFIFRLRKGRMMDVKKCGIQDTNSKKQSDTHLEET

Structure (SMILES): COc1cc(-c2nccc(-c3cccc(-c4ccc(CN5CC6(CNC(=O)C6)C5)c(OC)n4)c3Cl)c2Cl)ccc1CN[C@H]1C[C@](C)(O)C1 [Example 496, 2-((6-(2-Chloro-3-(3-chloro-2-(4-((((1r,3r)-3-hydroxy-3-methylcyclobutyl)amino)methyl)-3-methoxyphenyl)pyridin-4-yl)phenyl)-2-methoxypyridin-3-yl)methyl)-2,6-diazaspiro[3.4]octan-7-one]
EC50: 29.1 nM

Structure (SMILES): COc1cc(-c2nccc(-c3cccc(-c4ccc(CN5CC6(CNC(=O)C6)C5)c(OC)n4)c3Cl)c2Cl)ccc1CN1CC2(CC(O)C2)C1 [Example 497, 2-((6-(2-Chloro-3-(3-chloro-2-(4-((6-hydroxy-2-azaspiro[3.3]heptan-2-yl)methyl)-3-methoxyphenyl)pyridin-4-yl)phenyl)-2-methoxypyridin-3-yl)methyl)-2,6-diazaspiro[3.4]octan-7-one]
EC50: 30.2 nM

Structure (SMILES): COc1cc(-c2nccc(-c3cccc(-c4ccc(CN5CC6(CNC(=O)C6)C5)c(OC)n4)c3Cl)c2Cl)ccc1CN1CC(C)(O)C1 [Example 498, 2-((6-(2-Chloro-3-(3-chloro-2-(4-((3-hydroxy-3-methylazetidin-1-yl)methyl)-3-methoxyphenyl)pyridin-4-yl)phenyl)-2-methoxypyridin-3-yl)methyl)-2,6-diazaspiro[3.4]octan-7-one]
EC50: 26.5 nM

Structure (SMILES): COc1cc(-c2nccc(-c3cccc(-c4ccc(CN5CC6(CNC(=O)C6)C5)c(OC)n4)c3Cl)c2Cl)ccc1CN[C@H]1CC[C@H](O)CC1 [Example 502, 2-((6-(2-Chloro-3-(3-chloro-2-(4-((((1r,4r)-4-hydroxycyclohexyl)-amino)-methyl)-3-methoxyphenyl)pyridin-4-yl)phenyl)-2-methoxypyridin-3-yl)methyl)-2,6-diazaspiro[3.4]octan-7-one]
EC50: 28.9 nM

Structure (SMILES): COc1cc(-c2nccc(-c3cccc(-c4ccc(CN5CC6(CNC(=O)C6)C5)c(OC)n4)c3Cl)c2Cl)ccc1CN[C@H]1CC[C@@H](O)CC1 [Example 503, 2-((6-(2-Chloro-3-(3-chloro-2-(4-((((1s,4s)-4-hydroxycyclohexyl)-amino)-methyl)-3-methoxyphenyl)pyridin-4-yl)phenyl)-2-methoxypyridin-3-yl)methyl)-2,6-diazaspiro[3.4]octan-7-one]
EC50: 36.2 nM

Structure (SMILES): COc1cc(-c2nccc(-c3cccc(-c4ccc(CNCC5(O)CC5)c(OC)n4)c3Cl)c2Cl)ccc1CNCC1(O)CC1 [Example 504, 1-((((6-(2-Chloro-3-(3-chloro-2-(4-((((1-hydroxycyclopropyl)methyl)amino)methyl)-3-methoxyphenyl)pyridin-4-yl)phenyl)-2-methoxypyridin-3-yl)methyl)amino)methyl)cyclopropan-1-ol]
EC50: 36.4 nM

Structure (SMILES): COc1cc(-c2nccc(-c3cccc(-c4ccc(CNCC(F)F)c(OC)n4)c3Cl)c2Cl)ccc1CNCC(F)F [Example 505, N-((6-(2-Chloro-3-(3-chloro-2-(4-(((2,2-difluoroethyl)amino)methyl)-3-methoxyphenyl)pyridin-4-yl)phenyl)-2-methoxypyridin-3-yl)methyl)-2,2-difluoroethan-1-amine]
EC50: ≥ 10000 nM

Structure (SMILES): COc1cc(-c2nccc(-c3cccc(-c4ccc(CNC5CCOCC5)c(OC)n4)c3Cl)c2Cl)ccc1CN1CC2(CNC(=O)C2)C1 [Example 506, 2-(4-(3-Chloro-4-(2-chloro-3-(6-methoxy-5-(((tetrahydro-2H-pyran-4-yl)amino)methyl)pyridin-2-yl)phenyl)pyridin-2-yl)-2-methoxybenzyl)-2,6-diazaspiro[3.4]octan-7-one]
EC50: 25 nM

Structure (SMILES): COc1cc(-c2nccc(-c3cccc(-c4ccc(CNC5CCN(C(C)=O)CC5)c(OC)n4)c3Cl)c2Cl)ccc1CN1CCC[C@H](O)C1 [Example 507, (S)-1-(4-(((6-(2-Chloro-3-(3-chloro-2-(4-((3-hydroxypiperidin-1-yl)methyl)-3-methoxyphenyl)pyridin-4-yl)phenyl)-2-methoxypyridin-3-yl)methyl)amino)piperidin-1-yl)ethan-1-one]
EC50: 45.2 nM

Structure (SMILES): COc1cc(-c2nccc(-c3cccc(-c4ccc(CNC5CCN(C(C)=O)CC5)c(OC)n4)c3Cl)c2Cl)ccc1CN1CCC(CO)CC1 [Example 508, 1-(4-(((6-(2-Chloro-3-(3-chloro-2-(4-((4-(hydroxymethyl)piperidin-1-yl)methyl)-3-methoxyphenyl)pyridin-4-yl)phenyl)-2-methoxypyridin-3-yl)methyl)amino)piperidin-1-yl)ethan-1-one]
EC50: 35.1 nM

Structure (SMILES): COCC(=O)N1CCC(NCc2ccc(-c3cccc(-c4ccnc(-c5ccc(CN6CCC(O)CC6)c(OC)c5)c4Cl)c3Cl)nc2OC)CC1 [Example 510, 1-(4-(((6-(2-Chloro-3-(3-chloro-2-(4-((4-hydroxypiperidin-1-yl)methyl)-3-methoxyphenyl)pyridin-4-yl)phenyl)-2-methoxypyridin-3-yl)methyl)amino)piperidin-1-yl)-2-methoxyethan-1-one]
EC50: 27 nM

Structure (SMILES): COc1cc(-c2nccc(-c3cccc(-c4ccc(CN5CC6(C5)CN(C(C)=O)C6)c(OC)n4)c3Cl)c2Cl)ccc1CNC1CCOCC1 [Example 511, 1-(6-((6-(2-Chloro-3-(3-chloro-2-(3-methoxy-4-(((tetrahydro-2H-pyran-4-yl)amino)methyl)phenyl)pyridin-4-yl)phenyl)-2-methoxypyridin-3-yl)methyl)-2,6-diazaspiro[3.3]heptan-2-yl)ethan-1-one]
EC50: 20.7 nM

Structure (SMILES): COc1cc(-c2nccc(-c3cccc(-c4ccc(CNC5CCN(C(C)=O)CC5)c(OC)n4)c3Cl)c2Cl)ccc1CNCC1(O)CC1 [Example 512, 1-(4-(((6-(2-Chloro-3-(3-chloro-2-(4-((((1-hydroxycyclopropyl)methyl)amino)methyl)-3-methoxyphenyl)pyridin-4-yl)phenyl)-2-methoxypyridin-3-yl)methyl)amino)piperidin-1-yl)ethan-1-one]
EC50: 32.8 nM

Structure (SMILES): COc1cc(-c2nccc(-c3cccc(-c4ccc(CNC(C)C)c(OC)n4)c3Cl)c2Cl)ccc1CNC(C)C [Example 514, N-((6-(2-Chloro-3-(3-chloro-2-(4-((isopropylamino)methyl)-3-methoxyphenyl)pyridin-4-yl)phenyl)-2-methoxypyridin-3-yl)methyl)propan-2-amine]
EC50: 94.5 nM

Structure (SMILES): COc1cc(-c2nccc(-c3cccc(-c4ccc(CN[C@H]5CC[C@@H](O)CC5)c(OC)n4)c3Cl)c2Cl)ccc1CN1CC2(CNC(=O)C2)C1 [Example 516, 2-(4-(3-Chloro-4-(2-chloro-3-(5-((((1s,4s)-4-hydroxycyclohexyl)amino)-methyl)-6-methoxypyridin-2-yl)phenyl)pyridin-2-yl)-2-methoxybenzyl)-2,6-diazaspiro[3.4]octan-7-one]
EC50: 50.4 nM

Next, values leading:

EC50: 17.8 nM
Structure (SMILES): COc1cc(-c2nccc(-c3cccc(-c4ccc(CN[C@H]5CC[C@H](O)CC5)c(OC)n4)c3Cl)c2Cl)ccc1CN1CC2(CNC(=O)C2)C1 [Example 515, 2-(4-(3-Chloro-4-(2-chloro-3-(5-((((1r,4r)-4-hydroxycyclohexyl)-amino)methyl)-6-methoxypyridin-2-yl)phenyl)pyridin-2-yl)-2-methoxybenzyl)-2,6-diazaspiro[3.4]octan-7-one]

EC50: 66.6 nM
Structure (SMILES): COc1cc(-c2nccc(-c3cccc(-c4ccc(CN5CC6(CNC6)C5)c(OC)n4)c3Cl)c2Cl)ccc1CN1CC2(CNC(=O)C2)C1 [Example 520, 2-(4-(4-(3-(5-((2,6-Diazaspiro[3.3]heptan-2-yl)methyl)-6-methoxypyridin-2-yl)-2-chlorophenyl)-3-chloropyridin-2-yl)-2-methoxybenzyl)-2,6-diazaspiro[3.4]octan-7-one]

EC50: 8.63 nM
Structure (SMILES): COc1cc(-c2nccc(-c3cccc(-c4ccc(CN5CC6(CC(O)C6)C5)c(OC)n4)c3Cl)c2Cl)ccc1CN1CC2(CNC(=O)C2)C1 [Example 521, 2-(4-(3-Chloro-4-(2-chloro-3-(5-((6-hydroxy-2-azaspiro[3.3]heptan-2-yl)methyl)-6-methoxypyridin-2-yl)phenyl)pyridin-2-yl)-2-methoxybenzyl)-2,6-diazaspiro[3.4]octan-7-one]

EC50: 92.4 nM
Structure (SMILES): COc1cc(-c2ncnc(-c3cccc(-c4ccc(CNC[C@@H]5CCC(=O)N5)c(OC)n4)c3Cl)c2C)ccc1CNC[C@@H]1CCC(=O)N1 [Example 523, (S)-5-((((6-(2-Chloro-3-(6-(3-methoxy-4-(((((S)-5-oxopyrrolidin-2-yl)methyl)amino)methyl)phenyl)-5-methylpyrimidin-4-yl)phenyl)-2-methoxypyridin-3-yl)methyl)amino)methyl)pyrrolidin-2-one]

EC50: 347 nM
Structure (SMILES): COc1cc(-c2nccc(-c3cccc(-c4ccc(CNC5CCCCC5)c(OC)n4)c3Cl)c2Cl)ccc1CNC1CCCCC1 [Example 524, N-((6-(2-Chloro-3-(3-chloro-2-(4-((cyclohexylamino)methyl)-3-methoxyphenyl)pyridin-4-yl)phenyl)-2-methoxypyridin-3-yl)methyl)cyclohexanamine]

EC50: 56.7 nM
Structure (SMILES): COc1cc(-c2nccc(-c3cccc(-c4ccc(CN5CC6(CCNC6=O)C5)c(OC)n4)c3Cl)c2Cl)ccc1CNC1CCN(C(C)=O)CC1 [Example 525, 2-((6-(3-(2-(4-(((1-Acetylpiperidin-4-yl)amino)methyl)-3-methoxyphenyl)-3-chloropyridin-4-yl)-2-chlorophenyl)-2-methoxypyridin-3-yl)methyl)-2,6-diazaspiro[3.4] octan-5-one]

EC50: 30.3 nM
Structure (SMILES): COc1cc(-c2nccc(-c3cccc(-c4ccc(CN5CC6(CNC(=O)N6)C5)c(OC)n4)c3Cl)c2Cl)ccc1CNC1CCN(C(C)=O)CC1 [Example 526, 2-((6-(3-(2-(4-(((1-Acetylpiperidin-4-yl)amino)methyl)-3-methoxyphenyl)-3-chloropyridin-4-yl)-2-chlorophenyl)-2-methoxypyridin-3-yl)methyl)-2,5,7-triazaspiro[3.4]octan-6-one]

EC50: 14.4 nM
Structure (SMILES): COc1nc(-c2ccnc(-c3cccc4c3CC[C@@H]4Oc3nc(OC)c(CNC4CCN(C(C)=O)CC4)cc3C(F)(F)F)c2Cl)ccc1CNC[C@@H]1CCC(=O)N1 [Example 527, (S)-5-((((2′-((S)-1-((5-(((1-acetylpiperidin-4-yl)amino)methyl)-6-methoxy-3-(trifluoromethyl)pyridin-2-yl)oxy)-2,3-dihydro-1H-inden-4-yl)-3′-chloro-6-methoxy-[2,4′-bipyridin]-5-yl)methyl)amino)methyl)pyrrolidin-2-one]
